Reference: patent US12649750B2, “Macrocyclic compounds, compositions, and methods of using thereof” (Sionna Therapeutics Inc., priority 2022, dated 2026)

Target: T1, NBD1 (Homo sapiens, UniProt P13569)
T1 construct: Purified recombinant NBD1 was produced using previously described methods; made in house
Experiment: Aggregation analysis using differential static light scattering (DSLS), thermal stability of NBD1 (ΔTagg)
Assay type: binding
Conditions: ΔTagg versus DMSO control, NBD1 0.2 mg/ml
Procedure: Example 386. Aggregation Analysis Using Differential Static Light Scattering (DSLS)
Purified recombinant NBD1 was produced using previously described methods (A. Schmidt, J. L. Mendoza, P. J. Thomas (2011) Biochemical and Biophysical Approaches to Probe CFTR Structure (365-376) M. D. Amaral, K. Kunzelmann (eds.), Cystic Fibrosis, Methods in Molecular Biology 741, Springer Science+Business Media). The effect of test compounds on thermal stability of NBD1 was evaluated by differential static light scattering (DSLS) using the Harbinger Stargazer-384 instrument (Epiphyte Three, Toronto, Canada). Test compounds were dissolved and diluted to desired concentrations in 100% DMSO. The compounds or DMSO controls (100 nL) were stamped into wells of a […] low volume optical plate (Corning Inc., Corning, NY) using the Echo 555 acoustic liquid handler (Labcyte Inc., San Jose, CA).
NBD1 protein was diluted to 0.2 mg/ml in S200 buffer (50 mM Tris-HCl, 150 mM NaCl, 5 mM MgCl2, 2 mM ATP, 2 mM DTT, pH7.6) containing 1% glycerol. 10 uL of protein solution was aliquoted into the 384-well plate harboring the test compounds and 10 uL mineral oil was overlaid onto the protein solution, using the epMotion robotic liquid handler (Eppendorf North America, Hauppauge, NY). After placing into the Stargazer instrument, the plate was heated at 1° C. per minute to 70° C. Images were captured from 25° C. to 70° C. every 0.5° C. At the end of the experiment run, instrument software integrated image files and analyzed data automatically. A […] regression curve was generated for each well, representing the increase in light scattering over time. A temperature of aggregation (Tagg) was calculated based on the inflection point of the curve. To better compare data across experiments the average Tagg for DMSO control wells was calculated and subtracted from values for wells containing compounds to obtain a “ΔTagg” value. These ΔTagg values reflect stabilizing efficacy of the compounds. As set forth in Table 2 below, an ΔTagg value less than or equal to 5° C. is marked “A”; a value above 5° C. and less than or equal to 10° C. is marked “B”; a value greater than 10° C. and less than or equal to 25° C. is marked “C”.

T1 sequence (P13569 423-646 limits assumed): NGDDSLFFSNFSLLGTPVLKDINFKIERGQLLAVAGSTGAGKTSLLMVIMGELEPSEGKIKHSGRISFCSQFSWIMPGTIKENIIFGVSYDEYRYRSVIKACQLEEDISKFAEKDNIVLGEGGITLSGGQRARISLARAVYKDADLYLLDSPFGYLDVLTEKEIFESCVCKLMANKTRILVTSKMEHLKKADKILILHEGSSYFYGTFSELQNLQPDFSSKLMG

SMILES | DSLS 3D (100 μM ΔT)
C[C@@H](Cc1cccc([C@@]2(C)CCCC(C)(C)CS(=O)(=O)CC(N)c3c(c(F)cc4[nH]ccc34)Sc3ccc(F)c(c3)-c3nc2nn3C)c1)C(N)=O (single isomer, unassigned) [Compound 370B] | A (an ΔTagg value less than or equal to 5 °C is marked “A”)
COCC(Cc1cccc([C@@]2(C)CCCC(C)(C)CS(=O)(=O)CCc3c(c(F)c(F)c4[nH]ccc34)[S+]([O-])c3ccc(F)c(c3)-c3nc2nn3C)c1)C(=O)O (single isomer, unassigned) [Compound 371] | B (a value above 5 °C and less than or equal to 10 °C is marked “B”)
COCC(Cc1cccc([C@@]2(C)CCCC(C)(C)CS(=O)(=O)CCc3c(c(F)c(F)c4[nH]ccc34)[S+]([O-])c3ccc(F)c(c3)-c3nc2nn3C)c1)C(=O)O (single isomer, unassigned) [Compound 372] | B (a value above 5 °C and less than or equal to 10 °C is marked “B”)
COCC(Cc1cccc([C@@]2(C)CCCC(C)(C)CS(=O)(=O)CCc3c(c(F)c(F)c4[nH]ccc34)[S+]([O-])c3ccnc(c3)-c3nc2nn3C)c1)C(=O)O (single isomer, unassigned) [Compound 374] | B (a value above 5 °C and less than or equal to 10 °C is marked “B”)
COCC(Cc1cccc([C@@]2(C)CCCC(C)(C)CS(=O)(=O)CCc3c(c(F)c(F)c4[nH]ccc34)[S+]([O-])c3ccnc(c3)-c3nc2nn3C)c1)C(=O)O (single isomer, unassigned) [Compound 375] | B (a value above 5 °C and less than or equal to 10 °C is marked “B”)
C[C@H](Cc1cccc([C@@]2(C)CCCC(C)(C)CS(=O)(=O)CCc3c(c(F)cc4[nH]ccc34)[S+]([O-])c3cc(c(F)cc3N)-c3nc2nn3C)c1)C(=O)O (single isomer, unassigned) [Compound 379A] | A (an ΔTagg value less than or equal to 5 °C is marked “A”)
C[C@H](Cc1cccc([C@@]2(C)CCCC(C)(C)CS(=O)(=O)CCc3c(c(F)cc4[nH]ccc34)[S+]([O-])c3cc(c(F)cc3N)-c3nc2nn3C)c1)C(=O)O (single isomer, unassigned) [Compound 379B] | A (an ΔTagg value less than or equal to 5 °C is marked “A”)
C[C@H](Cc1cccc(C2NCCOCCS(=O)(=O)Cc3c(c(F)c(F)c4[nH]ccc34)Oc3ccc(F)c(c3)-c3nc2nn3C)c1)C(=O)O (single isomer, unassigned) [Compound 381A] | A (an ΔTagg value less than or equal to 5 °C is marked “A”)
C[C@H](Cc1cccc(C2NCCOCCS(=O)(=O)Cc3c(c(F)c(F)c4[nH]ccc34)Oc3ccc(F)c(c3)-c3nc2nn3C)c1)C(=O)O (single isomer, unassigned) [Compound 381B] | A (an ΔTagg value less than or equal to 5 °C is marked “A”)
C[C@H](Cc1cccc([C@@]2(C)CCCC(C)(C)CS(=O)(=O)CC(N)c3c(c(F)c(F)c4[nH]ccc34)Oc3ccc(F)c(c3)-c3nc2nn3C)c1)C(N)=O (single isomer, unassigned) [Compound 385A] | B (a value above 5 °C and less than or equal to 10 °C is marked “B”)
C[C@H](Cc1cccc([C@@]2(C)CCCC(C)(C)CS(=O)(=O)CC(N)c3c(c(F)c(F)c4[nH]ccc34)Oc3ccc(F)c(c3)-c3nc2nn3C)c1)C(N)=O (single isomer, unassigned) [Compound 385B] | A (an ΔTagg value less than or equal to 5 °C is marked “A”)
O=C(O)CCc1cccc(C2CCCCCCS(=O)(=O)CCc3c(c(F)cc4[nH]ccc34)Oc3ccc(F)c(c3)-c3ncc2[nH]3)c1 (centres unmarked) [Compound 35, 3-[3-(23,29-Difluoro-13,13-dioxo-25-oxa-13λ6-thia-3,20,31-triazapentacyclo[24.3.1.12,5.016,24.017,21]hentriaconta-1(30),2,4,16,18,21,23,26,28-nonaen-6-yl)phenyl]propanoic Acid] | C (a value greater than 10 °C and less than or equal to 25 °C is marked “C”)
O=C(O)CCc1cccc(C2CCCCCS(=O)(=O)CCc3c(c(F)cc4[nH]ccc34)Oc3ccc(F)c(c3)-c3ncc2[nH]3)c1 (centres unmarked) [Compound 36, 3-[3-(22,28-Difluoro-12,12-dioxo-24-oxa-12λ6-thia-3,19,30-triazapentacyclo[23.3.1.12,5.015,23.016,20]triaconta-1(29),2,4,15,17,20,22,25,27-nonaen-6-yl)phenyl]propanoic Acid] | C (a value greater than 10 °C and less than or equal to 25 °C is marked “C”)
CN1CCS(=O)(=O)CCC(C)(c2cccc(CCC(=O)O)c2)c2cnc([nH]2)-c2cc(ccc2F)Oc2c(F)cc3[nH]ccc3c2CC1=O (centres unmarked) [Compound 38, 3-[3-(22,28-Difluoro-6,12-dimethyl-9,9,13-trioxo-24-oxa-9λ6-thia-3,12,19,30-tetrazapentacyclo[23.3.1.12,5.015,23.016,20]triaconta-1(29),2,4,15,17,20,22,25,27-nonaen-6-yl)phenyl]propanoic Acid] | C (a value greater than 10 °C and less than or equal to 25 °C is marked “C”)
CN1CCS(=O)(=O)CCC(C)(c2cccc(CCC(=O)O)c2)c2cnc([nH]2)-c2cc(ccc2F)Oc2c(F)cc3[nH]ccc3c2CCC1=O (centres unmarked) [Compound 39, 3-[3-(23,29-Difluoro-6,12-dimethyl-9,9,13-trioxo-25-oxa-9λ6-thia-3,12,20,31-tetrazapentacyclo[24.3.1.12,5.016,24.017,21]hentriaconta-1(30),2,4,16,18,21,23,26,28-nonaen-6-yl)phenyl]propanoic Acid] | B (a value above 5 °C and less than or equal to 10 °C is marked “B”)
CC1(C)CCCC(C)(c2cccc(CCC(=O)O)c2)c2csc(n2)-c2cc(ccc2F)Oc2c(F)cc3[nH]ccc3c2CCS(=O)(=O)C1 (centres unmarked) [Compound 49, 3-[3-(22,28-Difluoro-6,10,10-trimethyl-12,12-dioxo-24-oxa-3,12lambda6-dithia-19,30-diazapentacyclo[23.3.1.12,5.015,23.016,20]triaconta-1(29),2(30),4,15,17,20,22,25,27-nonaen-6-yl)phenyl]propanoic acid] | C (a value greater than 10 °C and less than or equal to 25 °C is marked “C”)
CCOC(=O)[C@@H](C)Cc1cccc(C2CCCC(C)(C)CS(=O)(=O)CCc3c(c(F)cc4[nH]ccc34)C(=O)c3cccc(c3)-c3ccn2n3)c1 (stereo partly drawn) [Compound 161, Ethyl (2S)-3-[3-(22-fluoro-10,10-dimethyl-12,12,24-trioxo-12λ6-thia-5,19,30-triazapentacyclo[23.3.1.12,5.015,23.016,20]triaconta-1(29),2(30),3,15,17,20,22,25,27-nonaen-6-yl)phenyl]-2-methyl-propanoate] | A (an ΔTagg value less than or equal to 5 °C is marked “A”)
C[C@H](Cc1cccc([C@@]2(C)CCCC(C)(C)CS(=O)(=O)CCc3c(c(F)c(F)c4[nH]ccc34)S(=O)(=O)c3ccnc(c3)-c3nc2nn3C)c1)C(=O)O [Compound 301, (2R)-3-[3-[(6R)-21,22-difluoro-3,6,10,10-tetramethyl-12,12,24,24-tetraoxo-12λ6,24λ6-dithia-3,4,19,28,30-pentazapentacyclo[23.3.1.12,5.015,23.016,20]triaconta-1(29),2(30),4,15,17,20,22,25,27-nonaen-6-yl]phenyl]-2-methyl-propanoic Acid] | A (an ΔTagg value less than or equal to 5 °C is marked “A”)
Cn1nc2nc1-c1cc(ccc1F)Sc1c(F)cc3[nH]ccc3c1CCS(=O)(=O)CC(C)(C)CCC[C@]2(C)c1cccc([C@H](O)CO)c1 [Compound 302A, (1S)-1-[3-[(6R)-22,28-Difluoro-3,6,10,10-tetramethyl-12,12-dioxo-12λ6,24-dithia-3,4,19,30-tetrazapentacyclo[23.3.1.12,5.015,23.016,20]triaconta-1(29),2(30),4,15,17,20,22,25,27-nonaen-6-yl]phenyl]ethane-1,2-diol] | B (a value above 5 °C and less than or equal to 10 °C is marked “B”)
Cn1nc2nc1-c1cc(ccc1F)Sc1c(F)c(F)c3[nH]ccc3c1CCS(=O)(=O)CC(C)(C)CCC[C@]2(C)c1cccc(CC2(C(=O)O)CC2)c1 [Compound 303A, 1-[[3-[(6R)-21,22,28-Trifluoro-3,6,10,10-tetramethyl-12,12-dioxo-12λ6,24-dithia-3,4,19,30-tetrazapentacyclo[23.3.1.12,5.015,23.016,20]triaconta-1(29),2(30),4,15,17,20,22,25,27-nonaen-6-yl]phenyl]methyl]cyclopropanecarboxylic acid] | B (a value above 5 °C and less than or equal to 10 °C is marked “B”)
